Laboratory results: patent US5607944A, “Bicyclic heterocyclic compounds, pharmaceutical preparations containing these compounds and processes for their preparations” (Karl Thomae GmbH, priority 1993, dated 1997)
Structures can show the parent of a compound that is named as a salt.

Tests used:
[1] = system: platelet aggregation; assay: Antithrombotic activity: inhibition of collagen-induced platelet aggregation (Born and Cross) in platelet-rich plasma of healthy volunteers; format: cell-based; details: Homo sapiens, 10 minutes preincubation at 37° C.
Method: 2. Antithrombotic activity Method The thrombocyte aggregation is measured using the method of Born and Cross (J. Physiol. 170:397 (1964)) in platelet-rich plasma taken from healthy volunteers. To inhibit coagulation, the blood is mixed with 3.14% sodium citrate in a volume ratio of 1:10. Collagen-induced aggregation The pattern of the decrease in optical density of the platelet suspension is photometrically measured and recorded after the addition of the aggregation-triggering substance. The rate of aggregation is determined from the angle of inclination of the density curve. The point on the curve where there is maximum light transmittance is used to calculate the optical density. The concentration of collagen used is as small as possible but sufficient to produce an irreversible reaction curve. Standard commercial collagen produced by Hormonchemie of Munich is used. Before the addition of the collagen the plasma is incubated for 10 minutes at 37° C. with the substance. From the measurements obtained, the EC50 is determined graphically as the concentration giving a 50% change in the optical density in terms of the inhibition of aggregation.

[2] = target: human thrombocytes; assay: Inhibition of binding of ^3 H-BIBU 52 to human thrombocytes (competitive binding); details: human platelet-rich plasma diluted 1:10; 5 nM ^3 H-BIBU 52; 20 minutes, ambient temperature; read-out: Competitive binding of ^3 H-BIBU 52/test substance to human thrombocytes IC50
Method: 1. Inhibition of binding of ^3 H-BIBU 52 to human thrombocytes:
A suspension of human thrombocytes in plasma is incubated with ^3 H-BIBU 52 [=(3S,5S)-5-[(4'-amidino-4-biphenylyl)oxymethyl]-3-[(carboxyl)methyl]-2pyrrolidinone[3-^3 H-4-biphenylyl]] (see German Patent Application P 42 14 245.8 of the same applicant, dated 30.04.1992, internal reference: Case 5/1093-FL), which replaces the ^125 I fibrinogen ligand known from the literature, and various concentrations of the substance to be tested. The free and bound ligand are separated by centrifuging and quantified by scintillation counting. The inhibition of ^3 H-BIBU 52 binding by the test substance is determined from the measurements obtained.
In order to do this, donor blood is taken from an anticubital vein and anticoagulated with trisodium citrate (final concentration 13 mM). The blood is centrifuged for 10 minutes at 170×g and the supernatant platelet-rich plasma (PRP) is removed. The remaining blood is vigorously centrifuged once more in order to obtain plasma. The PRP is diluted 1:10 with autologous plasma. 750 μl are incubated with 50 μl of physiological saline solution, 100 μl of test substance solution, 50 μl of ^14 C-sucrose (3,700 Bq) and 50 μl of ^3 H-BIBU 52 (final concentration: 5 nM) at ambient temperature for 20 minutes. In order to measure the non-specific binding, 5 μl of BIBU 52 (final concentration: 30 μM) are used instead of the test substance. The samples are centrifuged for 20 seconds at 10,000× g and the supernatant is poured off. 100 μl thereof are measured in order to determine the free ligand. The pellet is dissolved in 500 μl of 0.2N NaOH, 450 μl are mixed with 2 ml of scintillator and 25 μl of 5N HCl and measured. The residual plasma remaining in the pellet is determined from the ^14 C-content and the bound ligand is determined from the ^3 H-measurement. After the non-specific binding has been deducted, the pellet activity is plotted against the concentration of the test substance and the concentration for a 50% inhibition of binding is determined.

[3] = system: mice; assay: Tolerance after intravenous administration of 30 mg/kg to three mice; format: in vivo; details: 30 mg/kg i.v., three mice in each case

Row | Compound | EC50 [1] [nM] | IC50 [2] [nM] | death of animals after intravenous administration [3]
1 | O=C(O)CC1CCN(C(=O)c2ccc(-c3nc4c(s3)CNCC4)cc2)CC1 [2(1), 2-[4-[4-(carboxymethyl)-piperidinocarbonyl]-phenyl]-4,5,6,7-tetrahydro-thiazolo[5,4-c]pyridine-hydrochloride] | 2600 | 210 | 
2 | COC(=O)[C@H]1CC[C@H](NC(=O)c2ccc(-c3nc4c(s3)CNCC4)c(C)c2)CC1 [2(4), 2-[4-[(trans-4-methoxycarbonyl-cyclohexyl)-aminocarbonyl]-2-methyl-phenyl]-4,5,6,7-tetrahydro-thiazolo[5,4-c]pyridine-dihydrochloride] | 1440 | 450 | 
3 | O=C(N[C@H]1CC[C@H](C(=O)O)CC1)N1CCC(c2nc3c(s2)CNCC3)CC1 [3(5), 2-[1-[(trans-4-carboxy-cyclohexyl)-aminocarbonyl]-piperid-4-yl]-4,5,6,7-tetrahydro-thiazolo[5,4-c]pyridine] | 100 | 31 | 
4 | O=C(N[C@H]1CC[C@H](C(=O)O)CC1)N1CCC(c2nc3c(s2)CCNCC3)CC1 [3(6), 2-[1-[(trans-4-carboxy-cyclohexyl)-aminocarbonyl]-piperid-4-yl]-4,5,7,8-tetrahydro-6H-thiazolo[4,5-d]azepine] | 100 | 42 | 
5 | O=C(N[C@H]1CC[C@H](C(=O)O)CC1)c1ccc(-c2nc3cnccc3[nH]2)cc1 [3(8), 2-[4-[(trans-4-carboxy-cyclohexyl)-aminocarbonyl]-phenyl]-1H-imidazo[4,5-c]pyridine] | 4200 | 2100 | 
6 | CN1CCc2nc(C3CCN(C(=O)N[C@H]4CC[C@H](C(=O)O)CC4)CC3)sc2CC1 [3(12), 2-[1-[(trans-4-carboxy-cyclohexyl)-aminocarbonyl]-piperid-4-yl]-6-methyl-4,5,7,8-tetrahydro-thiazolo[4,5-d]azepine] | 2900 | 2000 | 
7 | O=C(N[C@H]1CC[C@H](C(=O)O)CC1)c1ccc(-c2nc3c(s2)CCNCC3)cc1.O=C(O)C(F)(F)F [4(1), 2-[4-[(trans-4-carboxy-cyclohexyl)-aminocarbonyl]-phenyl]-4,5,7,8-tetrahydro-6H-thiazolo[4,5-d]azepine-trifluoroacetate] | 680 | 75 | no animals died
8 | Cc1cc(C(=O)N[C@H]2CC[C@H](C(=O)O)CC2)ccc1-c1nc2c(s1)CNCC2 [4(3), 2-[4-[(trans-4-carboxy-cyclohexyl)-aminocarbonyl]-2-methyl-phenyl]-4,5,6,7-tetrahydro-thiazolo[5,4-c]pyridine-trifluoraocetate] | 220 | 24 | 
9 | O=C(O)[C@H]1CC[C@H](NC(=O)[C@H]2CC[C@H](c3nc4c(s3)CCNCC4)CC2)CC1 [4(4), 2-[trans-4-[(trans-4-carboxy-cyclohexyl)-aminocarbonyl]-cyclohexyl]-4,5,7,8-tetrahydro-6H-thiazolo[4,5-d]azepine-trifluoroacetate] | 110 | 120 | 
10 | COC(=O)[C@H]1CC[C@H](NC(=O)N2CCC(c3nc4c(s3)CCNCC4)CC2)CC1 [7(1), 2-[1-[(trans-4-methoxycarbonyl-cyclohexyl)-aminocarbonyl]-piperid-4-yl]-4,5,7,8-tetrahydro-6H-thiazolo[4,5-d]azepine-hydrochloride] | 1400 | 1400 | 
11 | CCOC(=O)[C@H]1CC[C@H](NC(=O)N2CCC(c3nc4c(s3)CCNCC4)CC2)CC1 [7(2), 2-[1-[(trans-4-ethoxycarbonyl-cyclohexyl)-aminocarbonyl]-piperid-4-yl]-4,5,7,8-tetrahydro-6H-thiazolo[4,5-d]azepine-hydrochloride] | 2600 | 1300 | 
12 | CC(C)OC(=O)[C@H]1CC[C@H](NC(=O)N2CCC(c3nc4c(s3)CCNCC4)CC2)CC1 [7(3), 2-[1-[(trans-4-isopropoxycarbonyl-cyclohexyl)-aminocarbonyl]-piperid-4-yl]-4,5,7,8-tetrahydro-6H-thiazolo[4,5-d]azepine-hydrochloride] | 1300 | 1500 | 
13 | O=C(N[C@H]1CC[C@H](C(=O)O)CC1)c1ccc(-c2nc3c(s2)CNCC3)cc1.O=C(O)C(F)(F)F [Example 4, 2-[4-[(trans-4-Carboxy-cyclohexyl)-aminocarbonyl]-phenyl]-4,5,6,7-tetrahydro-thiazolo[5,4-c]pyridine-trifluoroacetate] | 410 | 96 | no animals died
14 | CC(C)COC(=O)[C@H]1CC[C@H](NC(=O)N2CCC(c3nc4c(s3)CCNCC4)CC2)CC1 [Example 7, 2-[1-[(trans-4-Isobutyloxycarbonyl-cyclohexyl)-aminocarbonyl]-piperid-4-yl]-4,5,7,8-tetrahydro-6H-thiazolo[4,5-d]azepine-hydrochloride] | 660 | 1600 | 
